Test results: patent US6833456B2, “Indolyl-urea derivatives of thienopyridines useful as antiangiogenic agents, and methods for their use” (Agouron Pharmaceuticals, Inc., priority 2002, dated 2004)
Where “and” joins values, the source holds several entries; their conditions need not be identical. Equal entries are not always repeated.

Key:
PDGFRβ = molecular target: T1, PDGFRβ (Homo sapiens, UniProt P09619); assay: PAE-PDGFRβ phosphorylation in PAE-PDGFRB cells assay; type: cell-based; details: PAE cells overexpressing human PDGFRβ, PDGF-BB stimulated; read-out: PAE PDGFR autophos IC50
T1 construct: expressed in transfected cells; host or cells: porcine aorta endothelial (PAE) cells
T1 sequence (P09619 33-1106): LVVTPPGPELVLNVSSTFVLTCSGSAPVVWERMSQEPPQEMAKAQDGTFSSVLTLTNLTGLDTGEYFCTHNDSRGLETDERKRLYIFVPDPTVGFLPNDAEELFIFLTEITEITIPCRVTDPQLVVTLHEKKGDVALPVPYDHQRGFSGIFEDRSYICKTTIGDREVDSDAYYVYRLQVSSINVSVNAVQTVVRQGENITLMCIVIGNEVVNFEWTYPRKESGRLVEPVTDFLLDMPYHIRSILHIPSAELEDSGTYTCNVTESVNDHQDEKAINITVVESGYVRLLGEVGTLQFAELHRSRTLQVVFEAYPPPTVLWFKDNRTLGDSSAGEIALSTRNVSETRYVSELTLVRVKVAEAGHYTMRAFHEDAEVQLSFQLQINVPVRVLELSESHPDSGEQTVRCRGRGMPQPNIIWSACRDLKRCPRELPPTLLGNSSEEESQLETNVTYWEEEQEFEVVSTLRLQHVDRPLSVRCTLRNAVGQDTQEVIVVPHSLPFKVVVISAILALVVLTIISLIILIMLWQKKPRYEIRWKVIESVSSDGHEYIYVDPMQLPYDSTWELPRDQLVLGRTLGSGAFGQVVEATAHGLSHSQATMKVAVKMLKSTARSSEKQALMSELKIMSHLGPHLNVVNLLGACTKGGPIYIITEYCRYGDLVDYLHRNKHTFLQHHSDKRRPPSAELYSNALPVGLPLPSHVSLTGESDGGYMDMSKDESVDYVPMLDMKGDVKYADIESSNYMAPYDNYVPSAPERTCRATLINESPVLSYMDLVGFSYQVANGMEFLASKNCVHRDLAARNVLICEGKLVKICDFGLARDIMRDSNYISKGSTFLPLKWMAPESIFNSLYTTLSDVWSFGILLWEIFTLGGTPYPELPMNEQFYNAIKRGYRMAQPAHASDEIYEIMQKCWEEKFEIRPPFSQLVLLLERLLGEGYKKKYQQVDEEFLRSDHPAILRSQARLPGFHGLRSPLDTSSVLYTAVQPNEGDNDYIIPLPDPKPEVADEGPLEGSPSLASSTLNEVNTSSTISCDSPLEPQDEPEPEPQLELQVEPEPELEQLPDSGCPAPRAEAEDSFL
Outline: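 PAE cells overexpressing human PDGFRβ, serum-starved 16 h (0.1% FBS), compound 1 h at 37° C (0.5% DMSO), then 1 μg/mL PDGF-BB with 2 mM Na3VO4 for 8 min. Receptor captured by anti-PDGFRβ, phosphotyrosine detected by HRP-PY20/TMB at 450 nm; IC50 by four-parameter fit.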

[1] = molecular target: T2, unphosphorylated VEGF-R2Δ50 (FLVK) (Homo sapiens, UniProt P35968, DEL940-989/E990V); assay: VEGF-R2 coupled spectrophotometric assay, unphosphorylated construct (FLVK); type: biochemical; details: for inhibition at 0.05 µM: percent inhibition at 50 nM
T2 construct: VEGF-R2Δ50 contains residues 806-939 and 990-1171; made in house; host or cells: baculovirus/insect cell system
T2 sequence (P35968 with tags, fused parts or gaps DEL940-989/E990V limits assumed): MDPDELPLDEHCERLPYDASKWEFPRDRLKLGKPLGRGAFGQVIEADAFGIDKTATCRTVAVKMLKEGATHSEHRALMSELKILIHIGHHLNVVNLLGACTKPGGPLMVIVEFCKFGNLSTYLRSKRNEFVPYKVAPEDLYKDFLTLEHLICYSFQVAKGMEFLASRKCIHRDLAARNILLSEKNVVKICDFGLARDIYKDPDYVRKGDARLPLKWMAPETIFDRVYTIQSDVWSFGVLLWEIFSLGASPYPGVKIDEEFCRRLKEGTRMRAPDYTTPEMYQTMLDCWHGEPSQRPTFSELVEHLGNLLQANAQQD
Outline: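 Human VEGF-R2Δ50 cytosolic kinase (residues 806-939/990-1171, E990V), baculovirus-expressed, unphosphorylated form. PK/LDH-coupled NADH oxidation at 340 nm with 20 mM poly(E4Y1), 3 mM ATP, 60 mM MgCl2, 2 mM MnCl2, 200 mM HEPES pH 7.5, 5-40 nM enzyme; Ki fitted by Morrison equation.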

| Compound | IC50 (PDGFRβ) | Ki [1] | inhibition at 0.05 µM [1] |
| --- | --- | --- | --- |
| C#CCNC(=O)n1c(C)cc2cc(Oc3ccnc4cc(C(=O)N5CC[C@@H](OC)C5)sc34)ccc21 [Example 4l, 5-[2-(3R-Methoxy-pyrrolidine-1-carbonyl)-thieno[3,2-b]pyridin-7-yloxy]-2-methyl-indole-1-carboxylic acid prop-2-ynylamide] | 15 nM | 0.19 nM | 96% |
| CNC(=O)n1c(C)cc2cc(Oc3ccnc4cc(C(=O)N5CC[C@@H](O)C5)sc34)ccc21 [Example 4n, 5-[2-(3R-Hydroxy-pyrrolidine-1-carbonyl)-thieno[3,2-b]pyridin-7-yloxy]-2-methyl-indole-1-carboxylic acid methylamide] | 5.8 nM | 0.62 nM | 99% |
| CNC(=O)n1c(C)cc2c(F)c(Oc3ccnc4cc(C(=O)N5CCC[C@H]5CO)sc34)ccc21 [Example 5n, 4-Fluoro-5-[(2-{[(2S)-2-(hydroxymethyl)pyrrolidin-1-yl]carbonyl}thieno[3,2-b]pyridin-7-yl)oxy]-N,2-dimethyl-1H-indole-1-carboxamide] | 18.2 nM | 0.12 nM | 100% |
| CNC(=O)n1c(C)cc2cc(Nc3ccnc4cc(C(=O)N5CCC[C@@H]5COC)sc34)ccc21 [Example 1b, 5-[2-(2R-Methoxymethyl-pyrrolidine-1-carbonyl)-thieno[3,2-b]pyridin-7-ylamino]-2-methyl-indole-1-carboxylic acid methylamide] | 73 nM and 86 nM | 0.96 nM | 88% |
| Cc1cc2cc(Nc3ccnc4cc(-c5nccn5C)sc34)ccc2n1C(=O)NC1CC1 [Example 2d, 5-(2-[1-methyl-1H-imidazol-2-yl]thieno[3,2-b]pyridin-7-ylamino)-2-methylindole-1-carboxylic acid cyclopropylamide] | 11 nM and 25 nM | 0.32 nM | 98% |
| CNC(=O)n1c(C)cc2cc(Oc3ccnc4cc(C(=O)N5CC[C@@H](OC)C5)sc34)ccc21 [Example 4j, 5-[2-(3R-Methoxy-pyrrolidine-1-carbonyl)-thieno[3,2-b]pyridin-7-yloxy]-2-methyl-indole-1-carboxylic acid methylamide] | 10 nM and 13 nM | 0.121 nM | 96% |
| C#CCNC(=O)n1c(C)cc2cc(Oc3ccnc4cc(C(=O)N5CCC[C@@H]5CO)sc34)ccc21 [Example 8q, 5-[2-(2R-Hydroxymethyl-pyrrolidine-1-carbonyl)-thieno[3,2-b]pyridin-7-yloxy]-2-methyl-indole-1-carboxylic acid prop-2-ynylamide] | 29 nM and 13 nM | 0.286 nM | 97% |
| C#CCNC(=O)n1c(C)cc2cc(Oc3ccnc4cc(C(=O)N5CC[C@H](OC)C5)sc34)ccc21 [Example 4f, 5-[2-(3S-Methoxy-pyrrolidine-1-carbonyl)-thieno[3,2-b]pyridin-7-yloxy]-2-methyl-indole-1-carboxylic acid prop-2-ynylamide] | 14 nM | 0.85 nM | 95% |
| CNC(=O)n1c(C)cc2cc(Oc3ccnc4cc(C(=O)N5CC[C@H](O)C5)sc34)ccc21 [Example 9g, 5-[2-(3S-Hydroxy-pyrrolidine-1-carbonyl)-thieno[3,2-b]pyridin-7-yloxy]-2-methyl-indole-1-carboxylic acid methylamide] | 27 nM and 33 nM | 0.243 nM | 98% |
| C#CCNC(=O)n1c(C)cc2cc(Nc3ccnc4cc(C(=O)N5CC[C@@H](O)C5)sc34)ccc21 [Example 1o, 5-[2-(3R-Hydroxy-pyrrolidine-1-carbonyl)-thieno[3,2-b]pyridin-7-ylamino]-2-methyl-indole-1-carboxylic acid prop-2-ynylamide] | 533 nM | 0.37 nM | 96% |

Other lines, results leading:

| IC50 (PDGFRβ) | Ki [1] | inhibition at 0.05 µM [1] | Compound |
| --- | --- | --- | --- |
| 10.5 nM | 0.23 nM | 97% | CNC(=O)n1c(C)cc2cc(Oc3ccnc4cc(C(=O)N5CC[C@H](OC)C5)sc34)ccc21 [Example 4g, 5-[2-(3S-Methoxy-pyrrolidine-1-carbonyl)-thieno[3,2-b]pyridin-7-yloxy]-2-methyl-indole-1-carboxylic acid methylamide] |
| 4 nM | 0.25 nM | 98% | Cc1cc2cc(Oc3ccnc4cc(C(=O)N5CC[C@@H](O)C5)sc34)ccc2n1C(=O)NC1CC1 [Example 4p, 5-[2-(3R-Hydroxy-pyrrolidine-1-carbonyl)-thieno[3,2-b]pyridin-7-yloxy]-2-methyl-indole-1-carboxylic acid cyclopropylamide] |
| 14.1 nM | 0.431 nM | 100% | C#CCNC(=O)n1c(C)cc2c(F)c(Oc3ccnc4cc(C(=O)N5CCC[C@H]5CO)sc34)ccc21 [Example 5e, 4-Fluoro-5-[2-(2S-hydroxymethyl-pyrrolidine-1-carbonyl)-thieno[3,2-b]pyridin-7-yloxy]-2-methyl-indole-1-carboxylic acid prop-2-ynylamide] |
| 216 nM | 0.327 nM | 97% | Cc1cc2cc(Oc3ccnc4cc(C(=O)N5CC[C@H](O)C5)sc34)ccc2n1C(=O)NCCCO [Example 9l, 5-[2-(3S-Hydroxy-pyrrolidine-1-carbonyl)-thieno[3,2-b]pyridin-7-yloxy]-2-methyl-indole-1-carboxylic acid (3-hydroxy-propyl)-amide] |
| 16.5 nM | 1.1 nM | 96% | CNC(=O)n1c(C)cc2cc(Oc3ccnc4cc(C(=O)N5CCC[C@H]5COC)sc34)ccc21 [Example 4a, 5-(2-[(S)-2-(methoxymethyl)pyrrolidine-1-carbonyl]thieno[3,2-b]pyridin-7-yloxy)-2-methylindole-1-carboxylic acid methylamide] |
| 36 nM | 0.245 nM | 98% | CCCNC(=O)n1c(C)cc2cc(Oc3ccnc4cc(C(=O)N5CC[C@H](O)C5)sc34)ccc21 [Example 9i, 5-[2-(3S-Hydroxy-pyrrolidine-1-carbonyl)-thieno[3,2-b]pyridin-7-yloxy]-2-methyl-indole-1-carboxylic acid propylamide] |
| > 1000 nM | 0.63 nM | 97% | Cc1cc2cc(Nc3ccnc4cc(C(=O)N5CC[C@H](O)C5)sc34)ccc2n1C(=O)NC1CC1 [Example 1k, 5-[2-(3S-Hydroxy-pyrrolidine-1-carbonyl)-thieno[3,2-b]pyridin-7-ylamino]-2-methyl-indole-1-carboxylic acid cyclopropylamide] |
| 239 nM | 0.69 nM | 90% | CNC(=O)n1c(C)cc2cc(Nc3ccnc4cc(C(=O)N5CCC[C@@H]5CO)sc34)ccc21 [Example 1a, 5-[2-(2R-Hydroxymethyl-pyrrolidine-1-carbonyl)-thieno[3,2-b]pyridin-7-ylamino]-2-methyl-indole-1-carboxylic acid methylamide] |
| > 1000 nM and 2600 nM | – | 94% | CNC(=O)n1c(C)cc2cc(Nc3ccnc4cc(C(=O)N5CC[C@@H](O)C5)sc34)ccc21 [Example 1n, 5-[2-(3R-Hydroxy-pyrrolidine-1-carbonyl)-thieno[3,2-b]pyridin-7-ylamino]-2-methyl-indole-1-carboxylic acid methylamide] |
| 274 nM | 0.932 nM | 90% | Cc1cc2cc(Oc3ccnc4cc(C(=O)N5CC[C@H](O)C5)sc34)ccc2n1C(=O)NCCO [Example 9k, 5-[2-(3S-Hydroxy-pyrrolidine-1-carbonyl)-thieno[3,2-b]pyridin-7-yloxy]-2-methyl-indole-1-carboxylic acid (2-hydroxy-ethyl)-amide] |
| > 100 nM and 179 nM | 0.67 nM | 98% | Cc1cc2cc(Nc3ccnc4cc(C(=O)N5CCC[C@@H]5CO)sc34)ccc2n1C(=O)NC1CC1 [Example 1c, 5-[2-(2R-Hydroxymethyl-pyrrolidine-1-carbonyl)-thieno[3,2-b]pyridin-7-ylamino]-2-methyl-indole-1-carboxylic acid cyclopropylamide] |
| 84 nM and 99 nM | 0.45 nM | 91% | CNC(=O)n1c(C)cc2cc(Nc3ccnc4cc(-c5nc(C(C)(C)O)cs5)sc34)ccc21 [Example 3a, 5-{2-[4-(1-Hydroxy-1-methyl-ethyl)-thiazol-2-yl]-thieno[3,2-b]pyridin-7-ylamino}-2-methyl-indole-1-carboxylic acid methylamide] |
| 9 nM | 0.63 nM | 97% | C#CCNC(=O)n1c(C)cc2cc(Oc3ccnc4cc(C(=O)N5CC[C@@H](O)C5)sc34)ccc21 [Example 4o, 5-[2-(3R-Hydroxy-pyrrolidine-1-carbonyl)-thieno[3,2-b]pyridin-7-yloxy]-2-methyl-indole-1-carboxylic acid prop-2-ynylamide] |
| > 1000 nM | 0.16 nM | 95% | Cc1cc2cc(Nc3ccnc4cc(C(=O)N5CCC[C@H]5CO)sc34)ccc2n1C(=O)NC1CC1 [Example 2e, 5-(2-[(S)-2-(hydroxymethyl)pyrrolidine-1-carbonyl]thieno[3,2-b]pyridin-7-ylamino)-2-methylindole-1-carboxylic acid cyclopropylamide] |
